Results as given in patent US11578087B2, “Oxaborole esters and uses thereof” (priority 2016, dated 2023).

Assays:
[1] = system: STIB719/ILRAD560 T. vivax (drug sensitive) strain; assay: Ex vivo Alamar Blue 48 h drug sensitivity assay for T. vivax; assay type: cell-based; conditions: Trypanosoma vivax, ex vivo bloodstream form from mouse, 45 hrs + 3 hrs Resazurin, 37° C., read-out: IC50: I Hypoxanthine Incorporation T. vivax 2 d
[2] = system: IL3000 T. congolense (drug sensitive) strain; assay: In vitro Alamar Blue 72 h drug sensitivity assay for T. congolense; assay type: cell-based, Trypanosoma congolense; conditions: Trypanosoma congolense, 72 h, bloodstream form, 69 h + 3 h Resazurin, 34° C., read-out: IC50: I Org. Growth T. congolense 3 d
Method in brief: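 Bloodstream-form trypanosomes in HMI medium with 20% bovine serum were exposed to compounds for 69 h at 34° C, 5% CO2, then resazurin for another 3 h. Fluorescence read at ex 536/em 588 nm; IC50 from 11-point sigmoidal dose-response curves, at least three independent runs.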

## CC(C)[C@H](NC(=O)c1ccc2c(c1)B(O)OC2(C)C)C(=O)OCc1ccccc1 [Example 6-032, Benzyl (1-hydroxy-3,3-dimethyl-1,3-dihydrobenzo[c][1,2]oxaborole-6-carbonyl)-L-valinate]
[1]
  IC50: > 2000 nM
[2]
  IC50: 10 to 5000 nM

## C[C@H](NC(=O)c1ccc2c(c1)B(O)OC2)C(=O)O[C@@H](C)c1ccccc1 [Example 6-022, (S)-1-phenylethyl (1-hydroxy-1,3-dihydrobenzo[c][1,2]oxaborole-6-carbonyl)-L-alaninate]
[1]
  IC50: 50 to 2000 nM
[2]
  IC50: 10 to 5000 nM

## CCc1c(C(=O)N[C@H](C(=O)OCc2ccc(F)cc2)C(C)C)ccc2c1B(O)OC2 [Example 6-052, 4-Fluorobenzyl (7-ethyl-1-hydroxy-1,3-dihydrobenzo[c][1,2]oxaborole-6-carbonyl)-L-valinate]
[1]
  IC50: < 0.5 nM
[2]
  IC50: < 0.5 nM

## COC(=O)[C@@H](NC(=O)c1ccc2c(c1C)B(O)OC2)[C@@H](C)OCc1ccccc1 [Example 6-078, Methyl O-benzyl-N-(1-hydroxy-7-methyl-1,3-dihydrobenzo[c][1,2]oxaborole-6-carbonyl)-L-threoninate]
[1]
  IC50: 0.51 to 49.9 nM
[2]
  IC50: 10 to 5000 nM

## CC(C)c1c(C(=O)N[C@H](C(=O)OCc2ccc(F)cc2)C(C)C)ccc2c1B(O)OC2 [Example 6-062, 4-Fluorobenzyl (1-hydroxy-7-isopropyl-1,3-dihydrobenzo[c][1,2]oxaborole-6-carbonyl)-L-valinate]
[1]
  IC50: < 0.5 nM
[2]
  IC50: 0.51 to 9.99 nM

## CC(C)C[C@H](NC(=O)c1ccc2c(c1)B(O)OC2)C(=O)OCc1ccccc1 [Example 6-006, Benzyl (1-hydroxy-1,3-dihydrobenzo[c][1,2]oxaborole-6-carbonyl)-L-leucinate]
[1]
  IC50: 0.51 to 49.9 nM
[2]
  IC50: 0.51 to 9.99 nM

## COC(=O)[C@@H](Cc1ccccc1)NC(=O)c1ccc2c(c1)B(O)OC2 [Example 6-018, Methyl (1-hydroxy-1,3-dihydrobenzo[c][1,2]oxaborole-6-carbonyl)-D-phenylalaninate]
[1]
  IC50: 50 to 2000 nM
[2]
  IC50: 10 to 5000 nM
